Reference: patent US10577363B2, “Substituted piperidine compounds” (EPIZYME, INC., priority 2014, dated 2020)

Legend:
SMYD3 [1] = target: T1, SMYD3 (Homo sapiens (Human), UniProt Q9H7B4); assay: SMYD3 biochemical assay (SPA, 3H-SAM methylation of MEKK2 protein substrate)
Method in brief: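 Methylation of N-terminally GST-tagged MEKK2 by untagged full-length human SMYD3, using 3H-SAM, in pH 8.0 Tris buffer with TCEP, BSG and Tween 20; enzyme and compound sat 30 min at room temperature before substrate addition. Stopped with 100 uM (final) cold SAM; incorporation read by scintillation proximity as dpm/cpm.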

SMYD3 [2] = target: T1, SMYD3; assay: SMYD3 cell assay (Trimethyl-MEKK2 In-Cell Western in 293T/17 cells); format: cell-based
Method in brief: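 In-Cell Western readout: methanol-fixed cells stained for trimethyl-MEKK2 and flag tag, ratio per well normalized to DMSO and background controls.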

[3] = average of n = 1 to n = 50, read-out: SMYD3 Biochem IC50
[4] = average of n = 1 to n = 50, read-out: SMYD3 Cell IC50
[5] = Table 2A, read-out: SMYD3 Biochem IC50
[6] = Table 2A, read-out: SMYD3 Cell IC50
[7] = IC50 values are an average of n = 1 to n = 50, read-out: SMYD3 Biochem IC50*
[8] = IC50 values are an average of n = 1 to n = 50, read-out: SMYD3 Cell IC50*
[9] = read-out: SMYD3 Biochem IC50 (μM)*
[10] = 293T/17 cells, read-out: SMYD3 Cell IC50 (μM)*

T1 sequence (Q9H7B4 whole entry): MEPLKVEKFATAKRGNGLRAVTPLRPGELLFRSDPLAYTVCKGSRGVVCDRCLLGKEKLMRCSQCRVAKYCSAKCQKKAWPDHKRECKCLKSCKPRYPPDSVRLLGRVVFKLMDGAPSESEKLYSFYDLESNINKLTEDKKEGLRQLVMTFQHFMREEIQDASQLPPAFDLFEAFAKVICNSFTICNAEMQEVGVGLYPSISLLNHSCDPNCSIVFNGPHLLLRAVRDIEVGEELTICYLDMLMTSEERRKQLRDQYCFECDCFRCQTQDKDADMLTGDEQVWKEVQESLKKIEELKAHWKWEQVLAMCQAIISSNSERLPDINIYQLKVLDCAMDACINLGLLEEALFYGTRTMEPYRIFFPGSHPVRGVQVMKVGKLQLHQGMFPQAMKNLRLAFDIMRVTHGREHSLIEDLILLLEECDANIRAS

C[C@@H](NC1CCN(S(=O)(=O)N2[C@@H]3CC[C@H]2C[C@@H](NC(=O)c2cc(C4CC4)on2)C3)CC1)c1ccccc1 [compound 923, 5-cyclopropyl-N-((1R,3R,5S)-8-((4-(((R)-1-phenylethyl)amino)piperidin-1-yl)sulfonyl)-8-azabicyclo[3.2.1]octan-3-yl)isoxazole-3-carboxamide]
IC50 (SMYD3 [1]; read-out: SMYD3 Biochem IC50*): 0.0286 µM | IC50 (SMYD3 [2]; read-out: SMYD3 Cell IC50*): 0.31 µM

O=C(N[C@H]1CCN(S(=O)(=O)CCCN2CCOCC2)[C@H](Cc2ccccc2)C1)c1cc(C2CC2)on1 [compound 498, N-((2R,4S)-2-benzyl-1-((3-morpholinopropyl)sulfonyl)piperidin-4-yl)-5-cyclopropylisoxazole-3-carboxamide]
IC50 (SMYD3 [1]; Table 1A, IC50 values are an average of n = 1 to n = 50, read-out: SMYD3 Biochem IC50): 9.96 µM | IC50 (SMYD3 [2]; Table 1A, IC50 values are an average of n = 1 to n = 50, read-out: SMYD3 Cell IC50): > 10 µM

CCc1cc(C(=O)N[C@H]2C[C@H]3CC[C@@H](C2)N3S(=O)(=O)CC2CCN(CCCC(F)(F)F)CC2)no1 [compound 779, 5-ethyl-N-((1R,3r,5S)-8-(((1-(4,4,4-trifluorobutyl)piperidin-4-yl)methyl)sulfonyl)-8-azabicyclo[3.2.1]octan-3-yl)isoxazole-3-carboxamide]
IC50 (SMYD3 [1]; read-out: SMYD3 Biochem IC50*): 0.0012 µM | IC50 (SMYD3 [2]; read-out: SMYD3 Cell IC50*): 0.0281 µM

C[C@H](C1CCNCC1)S(=O)(=O)N1[C@@H]2CC[C@H]1C[C@@H](NC(=O)c1cc(C3CC3)on1)C2 [compound 842, 5-cyclopropyl-N-((1R,3R,5S)-8-(((R)-1-(piperidin-4-yl)ethyl)sulfonyl)-8-azabicyclo[3.2.1]octan-3-yl)isoxazole-3-carboxamide]
IC50 (SMYD3 [1]; read-out: SMYD3 Biochem IC50*): 0.0051 µM | IC50 (SMYD3 [2]; read-out: SMYD3 Cell IC50*): 0.029 µM

CN(C)[C@H]1CC[C@H](S(=O)(=O)N2[C@@H]3CC[C@H]2C[C@@H](NC(=O)c2cc(C4CC4)on2)C3)CC1 [compound 807, 5-cyclopropyl-N-((1R,3R,5S)-8-(((1r,4R)-4-(dimethylamino)cyclohexyl)sulfonyl)-8-azabicyclo[3.2.1]octan-3-yl)isoxazole-3-carboxamide]
IC50 (SMYD3 [1]; read-out: SMYD3 Biochem IC50*): 0.00244 µM | IC50 (SMYD3 [2]; read-out: SMYD3 Cell IC50*): 0.0857 µM

CC(C)CNCCCS(=O)(=O)N1CC[C@H](NC(=O)c2cc(C3CC3)on2)C[C@@H]1C [compound 640, 5-cyclopropyl-N-((2S,4S)-1-((3-(isobutylamino)propyl)sulfonyl)-2-methylpiperidin-4-yl)isoxazole-3-carboxamide]
IC50 (SMYD3 [1]; [3]): 0.0357 µM | IC50 (SMYD3 [2]; [4]): 0.48 µM

O=C(N[C@@H]1C[C@H]2CCC[C@@H](C1)N2S(=O)(=O)c1cncc(F)c1)c1cc(C2CC2)on1 [compound 753, 5-cyclopropyl-N-((1R,3s,5S)-9-((5-fluoropyridin-3-yl)sulfonyl)-9-azabicyclo[3.3.1]nonan-3-yl)isoxazole-3-carboxamide]
IC50 (SMYD3 [1]; [3]): 0.672 µM | IC50 (SMYD3 [2]; [4]): 2.04 µM

O=C(N[C@@H]1CCN(S(=O)(=O)C2CCNC2)[C@H](Cc2ccccc2)C1)c1cc(C2CC2)on1 (stereo partly drawn) [compound 752, N-((2R,4R)-2-benzyl-1-(pyrrolidin-3-ylsulfonyl)piperidin-4-yl)-5-cyclopropylisoxazole-3-carboxamide]
IC50 (SMYD3 [1]; [3]): 0.667 µM | IC50 (SMYD3 [2]; [4]): 2.49 µM

N-((2S,4S)-1-(3,8-diaza-bicyclo[3.2.1]octan-8-ylsulfonyl)-2-methylpiperidin-4-yl)-5-cyclopropylisoxazole-3-carboxamide [Cpd. No. 555]
IC50 (SMYD3 [1]; [5]): 0.0037 µM | IC50 (SMYD3 [2]; [6]): 0.0239 µM

C[C@H]1C[C@@H](NC(=O)c2cc(C3CC3)on2)CCN1S(=O)(=O)CC1CCCCN1 (stereo partly drawn) [compound 989, 5-cyclopropyl-N-((2S,4S)-2-methyl-1-((piperidin-2-ylmethyl)sulfonyl)piperidin-4-yl)isoxazole-3-carboxamide]
IC50 (SMYD3 [1]; [7]): 0.175 µM | IC50 (SMYD3 [2]; [8]): 1.16 µM

C[C@H]1C[C@@H](NC(=O)c2cc(C3CC3)on2)CCN1S(=O)(=O)N1CCC(C)(N)CC1 [compound 774, N-((2S,4S)-1-((4-amino-4-methylpiperidin-l-yl)sulfonyl)-2-methylpiperidin-4-yl)-5-cyclopropylisoxazole-3-carboxamide]
IC50 (SMYD3 [1]; read-out: SMYD3 Biochem IC50*): 0.00104 µM | IC50 (SMYD3 [2]; read-out: SMYD3 Cell IC50*): 0.0256 µM

O=C(N[C@H]1C[C@H]2CC[C@@H](C1)N2S(=O)(=O)CC1CCN(CCCO)CC1)c1cc(C2CC2)on1 [compound 534, 5-cyclopropyl-N-((1R,3r,5S)-8-(((1-(3-hydroxypropyl)piperidin-4-yl)methyl)sulfonyl)-8-azabicyclo[3.2.1]octan-3-yl)isoxazole-3-carboxamide]
IC50 (SMYD3 [1]; [5]): 0.0011 µM | IC50 (SMYD3 [2]; [6]): 0.0277 µM

CC[C@@H]1CC(NC(=O)c2cc(C3CC3)on2)CCN1C(=O)[C@H]1CC[C@H](N)CC1 (stereo partly drawn) [compound 110, N-((2R)-1-((1r,4R)-4-aminocyclohexane-1-carbonyl)-2-ethylpiperidin-4-yl)-5-cyclopropylisoxazole-3-carboxamide]
IC50 (SMYD3 [1]; [9]): 0.0994 µM | IC50 (SMYD3 [2]; read-out: SMYD3 Cell IC50 (μM)*): 0.893 µM

CCC[C@@H]1C[C@H](NC(=O)c2cc(C3CC3)on2)CCN1S(=O)(=O)CC1CCN(C)CC1 [compound 777, 5-cyclopropyl-N-((2R,4R)-1-(((1-methylpiperidin-4-yl)methyl)sulfonyl)-2-propylpiperidin-4-yl)isoxazole-3-carboxamide]
IC50 (SMYD3 [1]; read-out: SMYD3 Biochem IC50*): 0.00114 µM | IC50 (SMYD3 [2]; read-out: SMYD3 Cell IC50*): 0.017 µM

CC[C@H]1CNCCN1S(=O)(=O)N1CC[C@H](NC(=O)c2cc(C3CC3)on2)C[C@@H]1C [compound 983, 5-cyclopropyl-N-((2S,4S)-1-(((S)-2-ethylpiperazin-1-yl)sulfonyl)-2-methylpiperidin-4-yl)isoxazole-3-carboxamide]
IC50 (SMYD3 [1]; [7]): 0.142 µM | IC50 (SMYD3 [2]; [8]): 0.931 µM

C[C@H]1C[C@@H](NC(=O)c2cc(C3CC3)on2)CCN1S(=O)(=O)Cc1cccnc1 [compound 319, 5-cyclopropyl-N-((2S,4S)-2-methyl-1-((pyridin-3-ylmethyl)sulfonyl)piperidin-4-yl)isoxazole-3-carboxamide]
IC50 (SMYD3 [1]; [9]): 1.43 µM | IC50 (SMYD3 [2]; [10]): 4.53 µM

COCCN(C)C1CCN(S(=O)(=O)N2CC[C@H](NC(=O)c3cc(C4CC4)on3)C[C@@H]2C)CC1 [compound 851, 5-cyclopropyl-N-((2S,4S)-1-((4-((2-methoxyethyl)(methyl)amino)piperidin-1-yl)sulfonyl)-2-methylpiperidin-4-yl)isoxazole-3-carboxamide]
IC50 (SMYD3 [1]; read-out: SMYD3 Biochem IC50*): 0.00644 µM | IC50 (SMYD3 [2]; read-out: SMYD3 Cell IC50*): 0.125 µM

C[C@H]1C[C@@H](NC(=O)c2cc(C3CC3)on2)CCN1C(=O)C1CCCC(CN)C1 (stereo partly drawn) [compound 373, N-((2S,4S)-1-(3-(aminomethyl)cyclohexane-1-carbonyl)-2-methylpiperidin-4-yl)-5-cyclopropylisoxazole-3-carboxamide]
IC50 (SMYD3 [1]; [9]): 2.47 µM | IC50 (SMYD3 [2]; [10]): 29.8 µM

CCc1cc(C(=O)N[C@H]2C[C@H]3CC[C@@H](C2)N3S(=O)(=O)CC2CCN(C)CC2)no1 [compound 797, 5-ethyl-N-((1R,3r,5S)-8-(((1-methylpiperidin-4-yl)methyl)sulfonyl)-8-azabicyclo[3.2.1]octan-3-yl)isoxazole-3-carboxamide]
IC50 (SMYD3 [1]; read-out: SMYD3 Biochem IC50*): 0.0019 µM | IC50 (SMYD3 [2]; read-out: SMYD3 Cell IC50*): 0.0427 µM

O=C(N[C@H]1C[C@H]2CC[C@@H](C1)N2S(=O)(=O)CCN1CCC(O)C1)c1cc(C2CC2)on1 (stereo partly drawn) [compound 690, 5-cyclopropyl-N-((1R,3r,5S)-8-((2-(3-hydroxypyrrolidin-1-yl)ethyl)sulfonyl)-8-azabicyclo[3.2.1]octan-3-yl)isoxazole-3-carboxamide]
IC50 (SMYD3 [1]; [3]): 0.138 µM | IC50 (SMYD3 [2]; [4]): 0.553 µM

C[C@@H]1C[C@H](NC(=O)c2cc(C3CC3)on2)CCN1C(=O)c1ccc(CN2CCNCC2)cc1 [compound 658, 5-cyclopropyl-N-((2R,4R)-2-methyl-1-(4-(piperazin-1-ylmethyl)benzoyl)piperidin-4-yl)isoxazole-3-carboxamide]
IC50 (SMYD3 [1]; [3]): 0.0647 µM | IC50 (SMYD3 [2]; [4]): 1.4 µM
